According to patent publication US20210040074A1 (The United States of America,as represented by the …, priority 2018, published 2021):

Legend:
D5 = D5 (Homo sapiens, UniProt P21918); assay: D5R β-arrestin recruitment assay (DiscoverX PathHunter, CHO cells); assay type: cell-based; design: host or cells: CHO-K1; details: for Dopamine D5-β-arrestin Assay: DA + 50 μM PAM, Fold Change EC50: Table 6; for Dopamine D5-β-arrestin Assay: DA + 50 μM PAM, Fold Change EC50 / PAM activity at the D5 receptor / fold change of dopamine EC50 for β-arrestin recruitment to D5R: 50 μM compound; for D5 Beta-Arrestin: DA + 50 μM PAM, Fold Change EC50: fold change of dopamine EC50, 50 μM compound; for DA + 50 μM PAM, Fold Change EC50: fold change of DA EC50 with 50 μM PAM, Dopamine D5-β-arrestin Assay
Method: (§1) β-arrestin Recruitment Assay. […] Following 18-24 h of incubation, the cells were treated with the indicated concentrations of compound in PBS buffer containing 0.2 mM sodium metabisulfite, and incubated at 37° C. for 90 min. DiscoverX reagent was added to cells according to the manufacturer's protocol, followed by a 60 min incubation in the dark at room temperature. Luminescence was measured on a Hamamatsu FDSS μ-Cell reader (Hamamatsu, Bridgewater, N.J.) and data were collected using the FDSS software.
Each PAM was also examined in the absence of DA as an agonist, as indicated.

human D1R = human D1R (Homo sapiens, UniProt P21728); assay: D1R β-arrestin recruitment assay (DiscoverX PathHunter, CHO-K1 cells); details: for Dopamine D1-β-arrestin Assay: DA + 50 μM PAM, Fold Change EC50: Table 5, 50 μM compound; for DA + 50 μM PAM, Fold Change EC50: fold change of DA EC50 with 50 μM PAM, Dopamine D1-β-arrestin Assay
Source text: The DiscoverX PathHunter β-Arrestin Assay was used to measure β-arrestin reuitment to the D1R following the manufacturer's instructions.

D4R = target: T1, D4R (Homo sapiens, UniProt P21917); assay: D4 β-arrestin recruitment assay (DiscoverX PathHunter, CHO-K1 cells); assay type: cell-based; design: inferred from the same PathHunter system described for D1R and D5R; host or cells: CHO-K1; details: for Dopamine D4-β-arrestin Assay: DA + 50 μM PAM, Fold Change EC50: Table 7, 50 μM compound; for D4 Beta-Arrestin: DA + 50 μM PAM, Fold Change EC50: fold change of dopamine EC50, 50 μM compound; for DA + 50 μM PAM, Fold Change EC50: fold change of DA EC50 with 50 μM PAM, Dopamine D4-β-arrestin Assay
T1 sequence (P21917 1-419): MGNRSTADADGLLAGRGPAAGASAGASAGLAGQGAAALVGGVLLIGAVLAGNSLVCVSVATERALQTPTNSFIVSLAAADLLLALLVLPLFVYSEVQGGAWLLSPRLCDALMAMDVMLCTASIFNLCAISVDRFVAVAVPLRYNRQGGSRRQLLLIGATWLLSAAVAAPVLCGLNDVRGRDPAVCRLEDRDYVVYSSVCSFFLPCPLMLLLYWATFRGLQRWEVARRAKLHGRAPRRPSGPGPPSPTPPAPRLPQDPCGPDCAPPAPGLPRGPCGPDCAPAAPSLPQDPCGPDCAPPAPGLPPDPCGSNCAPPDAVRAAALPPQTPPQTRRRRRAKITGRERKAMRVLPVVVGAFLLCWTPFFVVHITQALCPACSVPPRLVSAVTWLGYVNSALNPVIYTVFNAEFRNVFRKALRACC
Method: as §1, with “Assay. Agonist-mediated recruitment of β-arrestin-2 to all five DARs was determined using the DiscoveRx PathHunter complementation assay (DiscoverX Inc, Fremont, Calif.), as previously described (Free, et. al., 2014; Conroy, et. al., 2015).” for “Assay.”

D5, sequence (P21918 whole entry): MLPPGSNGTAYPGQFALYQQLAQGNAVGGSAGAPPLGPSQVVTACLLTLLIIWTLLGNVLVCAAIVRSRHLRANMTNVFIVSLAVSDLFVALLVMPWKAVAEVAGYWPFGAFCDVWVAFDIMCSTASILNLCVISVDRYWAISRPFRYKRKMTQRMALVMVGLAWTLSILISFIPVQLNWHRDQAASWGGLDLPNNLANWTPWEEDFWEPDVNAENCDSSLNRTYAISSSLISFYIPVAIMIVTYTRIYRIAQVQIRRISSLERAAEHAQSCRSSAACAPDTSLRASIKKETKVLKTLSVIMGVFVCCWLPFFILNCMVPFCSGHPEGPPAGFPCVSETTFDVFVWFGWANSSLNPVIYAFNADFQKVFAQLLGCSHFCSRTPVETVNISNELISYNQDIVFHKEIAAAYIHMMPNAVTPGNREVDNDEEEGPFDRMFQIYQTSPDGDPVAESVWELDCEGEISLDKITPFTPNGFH
human D1R, sequence (P21728 whole entry): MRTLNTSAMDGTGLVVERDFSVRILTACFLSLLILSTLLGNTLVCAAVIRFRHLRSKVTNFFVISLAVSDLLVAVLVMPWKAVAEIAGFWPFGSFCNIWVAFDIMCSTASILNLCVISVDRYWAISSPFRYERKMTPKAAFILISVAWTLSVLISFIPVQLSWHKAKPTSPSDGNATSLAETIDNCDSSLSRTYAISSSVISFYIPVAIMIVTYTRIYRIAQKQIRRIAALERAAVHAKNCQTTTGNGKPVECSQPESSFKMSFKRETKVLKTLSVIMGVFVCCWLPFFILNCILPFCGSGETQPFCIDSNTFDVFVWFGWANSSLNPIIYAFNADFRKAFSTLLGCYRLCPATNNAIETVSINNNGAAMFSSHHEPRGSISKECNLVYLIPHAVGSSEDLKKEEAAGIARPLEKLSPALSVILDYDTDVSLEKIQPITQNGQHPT

CC(C)c1nc2c(c(=O)c3ccccc3n2C)c(=O)n1-c1ccc(F)cc1 [R1=4-FPh, R2=i-Propyl, R3=H, X=NMe]
Dopamine D5-β-arrestin Assay: DA + 50 μM PAM, Fold Change EC50 (D5): 2.44 | Dopamine D1-β-arrestin Assay: DA + 50 μM PAM, Fold Change EC50 (human D1R): 1.69 | Dopamine D4-β-arrestin Assay: DA + 50 μM PAM, Fold Change EC50 (D4R): 1.76

COc1ccc(-n2c(C3CCCC3)nc3c(c(=O)c4ccccc4n3C)c2=O)cc1Cl [Compound 15]
D5 Beta-Arrestin: DA + 50 μM PAM, Fold Change EC50 (D5): 1.51 | D4 Beta-Arrestin: DA + 50 μM PAM, Fold Change EC50 (D4R): 1.33

Cn1c2ccccc2c(=O)c2c(=O)n(-c3ccc(Cl)cc3)c(CC3CCCCC3)nc21 [Compound 25]
D5 Beta-Arrestin: DA + 50 μM PAM, Fold Change EC50 (D5): 2.25 | D4 Beta-Arrestin: DA + 50 μM PAM, Fold Change EC50 (D4R): 0.77

Cc1ccc(-n2c(C3CCCC3)nc3c(c(=O)c4ccccc4n3C)c2=O)cc1 [Compound 10]
D5 Beta-Arrestin: DA + 50 μM PAM, Fold Change EC50 (D5): 3.11 | D4 Beta-Arrestin: DA + 50 μM PAM, Fold Change EC50 (D4R): 1.33

Cn1c2ccccc2c(=O)c2c(=O)n(-c3cccc(Cl)c3)c(C3CCCC3)nc21 [Compound 14]
D5 Beta-Arrestin: DA + 50 μM PAM, Fold Change EC50 (D5): 0.91 | D4 Beta-Arrestin: DA + 50 μM PAM, Fold Change EC50 (D4R): 1.90

CC1CCc2c(sc(NC(=O)c3ccc(O)cc3)c2C(N)=O)C1 (stereo not drawn) [R4=NH2; R5=NHCO-4-HOPh; R6=Me]
DA + 50 μM PAM, Fold Change EC50 (D5): 0.87 | DA + 50 μM PAM, Fold Change EC50 (human D1R): 1.76 | DA + 50 μM PAM, Fold Change EC50 (D4R): 1.2

CC(C)Cc1nc2c(c(=O)c3ccccc3n2C)c(=O)n1-c1cccc(Cl)c1 [Compound 7]
PAM activity at the D5 receptor (D5): none of these analogs have PAM activity | fold change of dopamine EC50 for β-arrestin recruitment to D5R (D5): 0.8 fold | D5 Beta-Arrestin: DA + 50 μM PAM, Fold Change EC50 (D5): 0.80 | D4 Beta-Arrestin: DA + 50 μM PAM, Fold Change EC50 (D4R): 0.57

COc1ccc(-n2c(CC(C)C)nc3c(c(=O)c4ccccc4n3C)c2=O)cc1 [Compound 9]
D5 Beta-Arrestin: DA + 50 μM PAM, Fold Change EC50 (D5): 2.93 | D4 Beta-Arrestin: DA + 50 μM PAM, Fold Change EC50 (D4R): 1.58

Cc1ccc(-n2c(CC3CCCCC3)nc3c(c(=O)c4ccccc4n3C)c2=O)cc1 [Compound 26]
D5 Beta-Arrestin: DA + 50 μM PAM, Fold Change EC50 (D5): 1.15 | D4 Beta-Arrestin: DA + 50 μM PAM, Fold Change EC50 (D4R): 1.40

Cn1c2ccccc2c(=O)c2c(=O)[nH]c(C3CCCC3)nc21 [Compound 12]
D5 Beta-Arrestin: DA + 50 μM PAM, Fold Change EC50 (D5): 0.66 | D4 Beta-Arrestin: DA + 50 μM PAM, Fold Change EC50 (D4R): 0.71

COc1ccc(-n2c(C3CCCCC3)nc3c(c(=O)c4ccccc4n3C)c2=O)cc1Cl [Compound 4]
D5 Beta-Arrestin: DA + 50 μM PAM, Fold Change EC50 (D5): 0.77 | D4 Beta-Arrestin: DA + 50 μM PAM, Fold Change EC50 (D4R): 0.61

CC(C)(C)C1CCc2c(sc(NC(=O)c3ccco3)c2C(N)=O)C1 (stereo not drawn) [R4=NH2; R5=NHCO-2-furanyl; R6=t-Bu]
DA + 50 μM PAM, Fold Change EC50 (D5): 1.14 | DA + 50 μM PAM, Fold Change EC50 (human D1R): 2.19 | DA + 50 μM PAM, Fold Change EC50 (D4R): 1.17

CC(C)Cc1nc2c(c(=O)c3ccccc3n2C)c(=O)n1-c1ccc(Cl)cc1 [Compound 6]
PAM activity at the D5 receptor (D5): none of these analogs have PAM activity | fold change of dopamine EC50 for β-arrestin recruitment to D5R (D5): 0.8 fold | D5 Beta-Arrestin: DA + 50 μM PAM, Fold Change EC50 (D5): 0.81 | D4 Beta-Arrestin: DA + 50 μM PAM, Fold Change EC50 (D4R): 0.47

CC(C)Cn1c(-c2ccco2)nc2c(c(=O)c3ccccc3n2C)c1=O [R1=i-Bu, R2=2-furyl, R3=H, X=NMe]
Dopamine D5-β-arrestin Assay: DA + 50 μM PAM, Fold Change EC50 (D5): 17.2 | Dopamine D1-β-arrestin Assay: DA + 50 μM PAM, Fold Change EC50 (human D1R): 2.06 | Dopamine D4-β-arrestin Assay: DA + 50 μM PAM, Fold Change EC50 (D4R): 1.7

COc1ccc2c(=O)c3c(=O)n(-c4ccccc4)c(-c4ccc(C)cc4)nc3oc2c1 [R1=Ph, R2=4-MePh, R3=MeO, X=O]
Dopamine D5-β-arrestin Assay: DA + 50 μM PAM, Fold Change EC50 (D5): 4.94 | Dopamine D1-β-arrestin Assay: DA + 50 μM PAM, Fold Change EC50 (human D1R): 0.85 | Dopamine D4-β-arrestin Assay: DA + 50 μM PAM, Fold Change EC50 (D4R): 0.99

Cn1c2ccccc2c(=O)c2c(=O)n(Cc3ccccc3)c(-c3ccc(F)cc3)nc21 [R1=Bn, R2=4-FPh, R3=H, X=NMe]
Dopamine D5-β-arrestin Assay: DA + 50 μM PAM, Fold Change EC50 (D5): 6.74 | Dopamine D1-β-arrestin Assay: DA + 50 μM PAM, Fold Change EC50 (human D1R): 1.32 | Dopamine D4-β-arrestin Assay: DA + 50 μM PAM, Fold Change EC50 (D4R): 1.24

CCCCCc1nc2c(c(=O)c3ccccc3n2C)c(=O)n1C1CCCCCC1 [R1=Cycloheptyl, R2=n-Pentyl, R3=H, X=NMe]
Dopamine D5-β-arrestin Assay: DA + 50 μM PAM, Fold Change EC50 (D5): 3.89 | Dopamine D1-β-arrestin Assay: DA + 50 μM PAM, Fold Change EC50 (human D1R): 1.12 | Dopamine D4-β-arrestin Assay: DA + 50 μM PAM, Fold Change EC50 (D4R): 1.46
